Test [1] has as its system Antigen-Induced Dyspnea in Inbred Rats. As to conditions: 3 µg/kg i.v. before challenge; background statement in the introduction; cited from earlier work.
The test system is the same in test [2]. The test is described as follows: Antigen-induced dyspnea in sensitized inbred asthmatic rats challenged with aerosolized egg albumin. The test is classed as in vivo. To be noted: for Duration of Dyspnea in Minutes (Mean±S.D.) n=6/group: 1 mg/kg s.c. 1 hour before antigen challenge; for Inhibition %: inhibition of duration of dyspnea vs vehicle control, 1 mg/kg s.c. 1 hour. The source says: Sensitized inbred "asthmatic rats" challenged with aerosolized antigen respond with symptoms of continuous dyspnea which is partly mediated by serotonin. […] These rats differed from normal rats in that they have nonspecific bronchial hyperreactivity to a number of bronchoconstrictor agents (Brunet et al., J. Immun., 131, 434-438 (1983)].
• (1) Animals: Rats were obtained from an inbred line of asthmatic rats that were developed and maintained in local laboratories and later at a local farm. Male and female rats were used between 10-12 weeks of age. Their weights ranged from 220-240 gm (females) and 350-400 gm (males). Rats were matched by sex and littermates between the various treatment groups. • (2) Materials: Egg albumin (EA), grade V, crystallized and lyophilized (Sigma Chemical Co., St. Louis), aluminum hydroxide (Reheis Chemical Company, Chicago), and methysergide bimaleate (Sandoz Ltd., Basel, Switzerland). • (3) Apparatus: The challenge and subsequent respiratory recordings were carried out in a clear plastic box with internal dimensions 10 x 6 x 4 inches. The top of the box was removable; in use, it was held firmly in place by four clamps and an airtight seal was maintained by a soft rubber gasket. Through the centre of each end of the chamber a Devilbiss nebulizer (No. 40) was inserted via an airtight seal and each end of the box was also equipped with an outlet. A Fleisch No. 0000 pneumotachograph was inserted into one end of the box and coupled to a Grass volumetric pressure transducer (PT5-A) which was then connected to a Beckman Type R Dynograph through appropriate couplers. While aerosolizing the antigen, the outlets were open and the pneumotachograph was isolated from the chamber. The outlets were closed and the pneumotachograph and the chamber were connected during the recordings of the respiratory patterns. For challenge, 2 ml of 3% solution of antigen in saline was placed into each nebulizer and the aerosol was generated with air from a small Potter diaphragm pump operating at 10 psi and a flow of 8 litre/minute. • (4) Procedure: Rats were sensitized by injecting (s.c.) 1 ml of suspension containing 1 mg egg albumin (EA) and 200 mg aluminum hydroxide in saline. They were used on day 13 post sensitization. Rats were exposed to aerosol of 3% EA in saline for exatly 1 minute, then their respiratory profiles were recorded for an additional 30 minutes. The duration of continuous dyspnea was measured from the respiratory recordings.
Form.I-8) was administered subcutaneously as a solution in 5% mannitol 1 hour prior to challenge with antigen. Methysergide bimaleate was dissolved in saline and given intravenously at dose of 3 ug/kg 5 minutes before challenge. Dose volume employed for subcutaneous treatments was 2 ml/kg and for i.v. treatments 1 ml/kg. Control groups of rats (n-6) were treated subcutaneously with drug vehicle (5% mannitol).
The sensitivity of various drug treatments were determined in terms of the decrease in duration of dyspnea in comparison with a group of vehicle- treated controls. Comparisons between groups were made using the Student's t-test.

Regarding `CC[C@@H](CO)NC(=O)[C@@H]1C=C2c3cccc4c3c(cn4C)C[C@H]2N(C)C1` [methysergide, methysergide bimaleate], in test [1], the “serotonin component of continuous dyspnea” value is “completely blocked”.
`CC(C)[C@@H]1NC(=O)[C@H](CCCCN)NC(=O)[C@@H](Cc2c[nH]c3ccccc23)NC(=O)[C@H](Cc2ccc(O)cc2)NC(=O)[C@H](C)N(C)C(=O)[C@H](Cc2ccccc2)NC1=O` [Form.I-8), Cycle-(N-Me-Ala-Tyr-D-Trp-Lys-Val-Phe)]: the “Duration of Dyspnea in Minutes (Mean±S.D.) n=6/group” value in test [2] (+ Methysergide (3 µg/kg i.v. 5 minutes prior to challenge)) worked out at 5.7 ± 3.9 min; in test [2] (- Methysergide), 18.2 ± 3.6 min. Also, the “activity on duration of antigen-induced dyspnea” value in test [2] (1 mg/kg s.c., without methysergide to block the serotonin component) was “failed to produce activity”. Also, the Inhibition % in test [2] (+ Methysergide (3 µg/kg i.v. 5 minutes prior to challenge), p < 0.01) is on record as 57 p < 0.01%; in test [2] (+ Methysergide (3 µg/kg i.v. 5 minutes prior to challenge); p < 0.01; listed as Form.1-8)), 57%; in test [2] (- Methysergide), 0%.

The values are drawn from patent EP0222578A2, “Use of cyclic somatostatin analogues in the treatment of immediate hypersensitivity diseases” (Merck & Co., Inc., priority 1985, dated 1987).
